In ChEMBL document CHEMBL5505958, “Optimization of sequence and chiral content enhances therapeutic potential of tilapia piscidin peptides” (Eur J Med Chem, 2024):
≈ marks a conversion by molar mass, not a printed value.

Tests used:
Klebsiella oxytoca [1] = assay: Antibacterial activity against Klebsiella oxytoca 13985 assessed as inhibition of bacterial growth incubated for 16 to 20 hrs in presence of human serum; format: functional; settings: time 16-20 hrs
Acinetobacter baumannii [2] = assay: Antibacterial activity against Acinetobacter baumannii 10591 assessed as inhibition of bacterial growth incubated for 16 to 20 hrs in presence of human serum; format: functional; settings: time 16-20 hrs
Klebsiella pneumoniae [3] = assay: Bactericidal activity against Klebsiella pneumoniae BAA 2473 assessed as inhibition of bacterial growth in presence of 1 microg/ml of chymotrypsin (reference value: 1.56 to 3.13 microM); format: functional
Klebsiella pneumoniae [4] = assay: Antibacterial activity against Klebsiella pneumoniae BAA 2473 assessed as inhibition of bacterial growth in presence of 0.1 microg/ml of trypsin (reference value: 1.56 to 3.13 microM); format: functional
Klebsiella pneumoniae [5] = assay: Antibacterial activity against Klebsiella pneumoniae BAA 2473 assessed as inhibition of bacterial growth incubated for 16 to 20 hrs; format: functional; settings: time 16-20 hrs
Klebsiella pneumoniae [6] = assay: Antibacterial activity against Klebsiella pneumoniae TL 297 assessed as inhibition of bacterial growth incubated for 16 to 20 hrs in presence of human serum; format: functional; settings: time 16-20 hrs
Klebsiella pneumoniae [7] = assay: Bactericidal activity against Klebsiella pneumoniae BAA 2473 assessed as inhibition of bacterial growth in presence of 0.1 microg/ml of chymotrypsin (reference value: 1.56 to 3.13 microM); format: functional
Staphylococcus aureus = assay: Antibacterial activity against Staphylococcus aureus 10780 assessed as inhibition of bacterial growth incubated for 16 to 20 hrs in presence of human serum; format: functional; settings: time 16-20 hrs
Enterococcus faecium [8] = assay: Antibacterial activity against Enterococcus faecium 10067 assessed as inhibition of bacterial growth incubated for 16 to 20 hrs; format: functional; settings: time 16-20 hrs
Pseudomonas aeruginosa = assay: Bactericidal activity against Pseudomonas aeruginosa 19660 assessed as inhibition of bacterial growth incubated for 16 to 20 hrs in presence of human serum; format: functional; settings: time 16-20 hrs
Klebsiella pneumoniae [9] = assay: Antibacterial activity against Klebsiella pneumoniae 10692 assessed as inhibition of bacterial growth incubated for 16 to 20 hrs; format: functional; settings: time 16-20 hrs
Escherichia coli = assay: Bactericidal activity against Escherichia coli 10675 assessed as inhibition of bacterial growth incubated for 16 to 20 hrs; format: functional; settings: time 16-20 hrs
Yersinia enterocolitica [10] = assay: Bactericidal activity against Yersinia enterocolitica 13999 assessed as inhibition of bacterial growth incubated for 16 to 20 hrs; format: functional; settings: time 16-20 hrs
Klebsiella pneumoniae [11] = assay: Antibacterial activity against Klebsiella pneumoniae BAA 2473 assessed as inhibition of bacterial growth in presence of 10 microg/ml of pepsin (reference value: 1.56 to 3.13 microM); format: functional
Vibrio vulnificus [12] = assay: Bactericidal activity against Vibrio vulnificus 204 assessed as inhibition of bacterial growth incubated for 16 to 20 hrs in presence of human serum; format: functional; settings: time 16-20 hrs
Klebsiella aerogenes = assay: Antibacterial activity against Enterobacter aerogenes 15630 assessed as inhibition of bacterial growth incubated for 16 to 20 hrs; format: functional; settings: time 16-20 hrs
Klebsiella pneumoniae [13] = assay: Bactericidal activity against Klebsiella pneumoniae BAA 2473 assessed as inhibition of bacterial growth in presence of 1 microg/ml of trypsin (reference value: 1.56 to 3.13 microM); format: functional
Klebsiella pneumoniae [14] = assay: Antibacterial activity against Klebsiella pneumoniae BAA 2473 assessed as inhibition of bacterial growth in presence of 0.1 microg/ml of proteinase K (reference value: 1.56 to 3.13 microM); format: functional
Vibrio vulnificus [15] = assay: Bactericidal activity against Vibrio vulnificus 204 assessed as inhibition of bacterial growth incubated for 16 to 20 hrs; format: functional; settings: time 16-20 hrs
Enterococcus faecium [16] = assay: Antibacterial activity against Enterococcus faecium 10067 assessed as inhibition of bacterial growth incubated for 16 to 20 hrs in presence of human serum; format: functional; settings: time 16-20 hrs
Klebsiella pneumoniae [17] = assay: Antibacterial activity against Klebsiella pneumoniae BAA 2473 assessed as inhibition of bacterial growth in presence of 0.1 microg/ml of pepsin (reference value: 1.56 to 3.13 microM); format: functional
Acinetobacter baumannii [18] = assay: Antibacterial activity against Acinetobacter baumannii 10591 assessed as inhibition of bacterial growth incubated for 16 to 20 hrs; format: functional; settings: time 16-20 hrs
Yersinia enterocolitica [19] = assay: Antibacterial activity against Yersinia enterocolitica 13999 assessed as inhibition of bacterial growth incubated for 16 to 20 hrs; format: functional; settings: time 16-20 hrs
Klebsiella oxytoca [20] = assay: Bactericidal activity against Klebsiella oxytoca 13985 assessed as inhibition of bacterial growth incubated for 16 to 20 hrs in presence of human serum; format: functional; settings: time 16-20 hrs
Salmonella typhimurium [21] = assay: Bactericidal activity against Salmonella typhimurium DT104 assessed as inhibition of bacterial growth incubated for 16 to 20 hrs; format: functional, Salmonella enterica subsp. enterica serovar Typhimurium; settings: Salmonella enterica, time 16-20 hrs
Enterococcus faecalis = assay: Bactericidal activity against Enterococcus faecalis 10066 assessed as inhibition of bacterial growth incubated for 16 to 20 hrs; format: functional; settings: time 16-20 hrs
Klebsiella pneumoniae [22] = assay: Bactericidal activity against Klebsiella pneumoniae BAA 2473 assessed as inhibition of bacterial growth in presence of 10 microg/ml of pepsin (reference value: 1.56 to 3.13 microM); format: functional
[23] = system: Staphylococcus haemolyticus; assay: Bactericidal activity against Staphylococcus haemolyticus 15237 assessed as inhibition of bacterial growth incubated for 16 to 20 hrs; format: functional; settings: time 16-20 hrs
Klebsiella pneumoniae [24] = assay: Antibacterial activity against Klebsiella pneumoniae BAA 2473 assessed as inhibition of bacterial growth in presence of 1 microg/ml of proteinase K (reference value: 1.56 to 3.13 microM); format: functional
Klebsiella pneumoniae [25] = assay: Bactericidal activity against Klebsiella pneumoniae BAA 2473 assessed as inhibition of bacterial growth in presence of 1 microg/ml of proteinase K (reference value: 1.56 to 3.13 microM); format: functional
Klebsiella pneumoniae [26] = assay: Bactericidal activity against Klebsiella pneumoniae BAA 2473 assessed as inhibition of bacterial growth in presence of 1 microg/ml of pepsin (reference value: 1.56 to 3.13 microM); format: functional
Klebsiella pneumoniae [27] = assay: Bactericidal activity against Klebsiella pneumoniae BAA 2473 assessed as inhibition of bacterial growth in presence of 10 microg/ml of proteinase K (reference value: 1.56 to 3.13 microM); format: functional
Rhizopus arrhizus [28] = assay: Antifungal activity against Rhizopus oryzae 34550 assessed as inhibition of fungal growth incubated for 16 to 20 hrs; format: functional; settings: time 16-20 hrs
Rhizopus arrhizus [29] = assay: Antifungal activity against Rhizopus oryzae 34550 assessed as inhibition of fungal growth incubated for 16 to 20 hrs in presence of human serum; format: functional; settings: time 16-20 hrs
Salmonella enterica = assay: Antibacterial activity against Salmonella enterica 15455 assessed as inhibition of bacterial growth incubated for 16 to 20 hrs; format: functional; settings: time 16-20 hrs
Klebsiella pneumoniae [30] = assay: Bactericidal activity against Klebsiella pneumoniae BAA 2473 assessed as inhibition of bacterial growth incubated for 16 to 20 hrs; format: functional; settings: time 16-20 hrs
Klebsiella pneumoniae [31] = assay: Bactericidal activity against Klebsiella pneumoniae TL 297 assessed as inhibition of bacterial growth incubated for 16 to 20 hrs in presence of human serum; format: functional; settings: time 16-20 hrs
[32] = system: Staphylococcus haemolyticus; assay: Antibacterial activity against Staphylococcus haemolyticus 15237 assessed as inhibition of bacterial growth incubated for 16 to 20 hrs; format: functional; settings: time 16-20 hrs
Salmonella typhimurium [33] = assay: Bactericidal activity against Salmonella typhimurium DT104 assessed as inhibition of bacterial growth incubated for 16 to 20 hrs in presence of human serum; format: functional, Salmonella enterica subsp. enterica serovar Typhimurium; settings: Salmonella enterica, time 16-20 hrs
Acinetobacter baumannii [34] = assay: Bactericidal activity against Acinetobacter baumannii 10591 assessed as inhibition of bacterial growth incubated for 16 to 20 hrs; format: functional; settings: time 16-20 hrs

SMILES: CC(C)C[C@H](NC(=O)[C@H](CCCCN)NC(=O)[C@@H](CCCCN)NC(=O)[C@H](CC(C)C)NC(=O)[C@@H](N)Cc1ccccc1)C(=O)N[C@H](CC(C)C)C(=O)N[C@@H](CCCCN)C(=O)N[C@@H](C)C(=O)N[C@H](CC(C)C)C(=O)N[C@@H](Cc1ccccc1)C(=O)N[C@@H](CO)C(=O)N[C@H](C)C(=O)N1CCC[C@H]1C(=O)N[C@@H](CCCCN)C(=O)N[C@H](C)C(=O)N[C@@H](CC(C)C)C(=O)N[C@@H](CCCCN)C(=O)N[C@H](CCCNC(=N)N)C(=O)N[C@@H](CC(C)C)C(=O)N[C@@H](CC(C)C)C(=O)N[C@H](CCCNC(=N)N)C(=O)N[C@@H](CCCNC(=N)N)C(=O)N[C@@H](CCCNC(=N)N)C(=O)N[C@H](CCCNC(=N)N)C(=O)N[C@@H](CCCNC(=N)N)C(=O)O
- MIC (Klebsiella oxytoca [1]): 3.13 µM
- MIC (Acinetobacter baumannii [2]): 3.13 µM
- MBC (Klebsiella pneumoniae [3]): 0.78 µM
- MIC (Klebsiella pneumoniae [4]): 0.78 µM
- MIC (Klebsiella pneumoniae [5]): 0.78 µM (≈ 2.4 µg/mL)
- MIC (Klebsiella pneumoniae [6]): 1.56 µM
- MBC (Klebsiella pneumoniae [7]): 0.78 µM
- MIC (Staphylococcus aureus): 6.25 µM
- MIC (Enterococcus faecium [8]): 3.13 µM (≈ 9.64 µg/mL)
- MBC (Pseudomonas aeruginosa): 6.25 µM
- MIC (Klebsiella pneumoniae [9]): 3.13 µM (≈ 9.64 µg/mL)
- MBC (Escherichia coli): 3.13 µM (≈ 9.64 µg/mL)
- MBC (Yersinia enterocolitica [10]): 3.13 µM (≈ 9.64 µg/mL)
- MIC (Klebsiella pneumoniae [11]): 0.78 µM
- MBC (Vibrio vulnificus [12]): 12.5 µM
- MIC (Klebsiella aerogenes): 1.56 µM (≈ 4.8 µg/mL)
- MBC (Klebsiella pneumoniae [13]): 1.56 µM
- MIC (Klebsiella pneumoniae [14]): 0.78 µM
- MBC (Vibrio vulnificus [15]): 12.5 µM (≈ 38.5 µg/mL)
- MIC (Enterococcus faecium [16]): 100 µM
- MIC (Klebsiella pneumoniae [17]): 0.78 µM
- MIC (Acinetobacter baumannii [18]): 3.13 µM (≈ 9.64 µg/mL)
- MIC (Yersinia enterocolitica [19]): 3.13 µM (≈ 9.64 µg/mL)
- MBC (Klebsiella oxytoca [20]): 3.13 µM
- MBC (Salmonella typhimurium [21]): 6.25 µM (≈ 19.2 µg/mL)
- MBC (Enterococcus faecalis): > 12.5 µM
- MBC (Klebsiella pneumoniae [22]): 0.78 µM
- MBC [23]: 1.56 µM (≈ 4.8 µg/mL)
- MIC (Klebsiella pneumoniae [24]): 0.78 µM
- MBC (Klebsiella pneumoniae [25]): 1.56 µM
- MBC (Klebsiella pneumoniae [26]): 0.78 µM
- MBC (Klebsiella pneumoniae [27]): 0.78 µM
- MIC (Rhizopus arrhizus [28]): 0.78 µM (≈ 2.4 µg/mL)
- MIC (Rhizopus arrhizus [29]): 3.13 µM
- MIC (Salmonella enterica): 3.13 µM (≈ 9.64 µg/mL)
- MBC (Klebsiella pneumoniae [30]): 25 µM (≈ 77 µg/mL)
- MBC (Klebsiella pneumoniae [31]): 1.56 µM
- MIC [32]: 1.56 µM (≈ 4.8 µg/mL)
- MBC (Salmonella typhimurium [33]): 3.13 µM
- MBC (Acinetobacter baumannii [34]): 3.13 µM (≈ 9.64 µg/mL)
